Test results from patent US20230210999A1, “TARGETED PROTEASE DEGRADATION (TED) PLATFORM” (EUBULUS BIOTHERAPEUTICS INC., priority 2020, published 2023).
Where two headings read alike, the source gives them in different places.

Tests used:
Assay type in all cases: cell-based, human
MV4;11 cells = experiment: Cell proliferation experiment (Alamar blue, 72 h), MV4;11; details: read-out: Inhibitory activity IC50 on MV4;11
Procedure, shortened: (§1)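 Viability measured by Alamar blue fluorescence after 72 h culture with compound (5-fold serial dilutions, two wells each) added to log-phase cells. IC50 derived from a Min/Max/Slope logistic equation.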

PC-3 = experiment: Cell proliferation experiment, PC-3; details: read-out: Inhibitory activity IC50 on PC-3
Protocol: (§2) Reagents: RPMI-1640 medium, McCoy's 5A medium, IMDM medium, MEM medium, L-15 medium, fetal bovine serum. Penicillin-Streptomycin double antibody, trypsin, etc., 2-mercaptoethanol, NEAA, pyruvate, etc.
(§3) The cells were cultured in conventional ways, and the cells should be passed at least 2 generations before plating. Cells at the logarithmic growth phase were collected, prepared into single cell suspensions and counted. The concentration of cells was adjusted to the desired concentration, and cells were inoculated into a 96-well cell culture plate at 100 μl per well. 100 μL of complete medium of the test compound were added to each well, set up 2 duplicate wells for each concentration, and diluted with a 5-fold gradient, and continued to culture for 72 h. All cells were subjected to IC50 test for corresponding samples. The experimental results are shown in Test Example 4.
(§4) The fluorescence intensity of each well was detected using the Alarm blue method, and IC50 was calculated.
(§5) IC50 was calculated according to the following formula:
(§6) Y=Max+(Min−Max)/[1+(X/IC50)×Slope]
(§7) wherein Min, Max and Slope represent the minimum, maximum and slope respectively.

MDA-MB-231 cells = experiment: Cell proliferation experiment, MDA-MB-231
Protocol: as §2, §3, §4, §5, §6, §7

NCIH82 cells = experiment: Cell proliferation experiment, NCI-H82; details: Homo sapiens, NCI-H82, NCI-H82 cells; read-out: Inhibitory activity IC50 on NCI-H82
Procedure, shortened: as §1

[1] = Homo sapiens, MV4-11, MV4;11 cells
[2] = Homo sapiens, MDA-MB-231, MDA-MB-231 cells, read-out: Inhibitory activity IC50 on MDA-MB-231
[3] = Homo sapiens, MDA-MB-231, read-out: Inhibitory activity IC50 on MDA-MB-231

Row | SMILES | IC50 (MV4;11 cells; [1]) | IC50 (PC-3; Homo sapiens, PC-3, PC-3 cells) | IC50 (MDA-MB-231 cells; [2]) | IC50 (NCIH82 cells) | IC50 (MV4;11 cells; MV4;11 cells) | IC50 (MDA-MB-231 cells; [3]) | IC50 (PC-3; PC-3 cells) | IC50 (MDA-MB-231 cells; MDA-MB-231 cells, read-out: Inhibitory activity IC50 on MDA-MB-231)
1 | CNC(=O)c1ccccc1Nc1nc(Nc2ccc(N3CCN(C(=O)NCCOCCNCC(=O)Nc4ccc5c(c4)CN(C4CCC(=O)NC4=O)C5=O)CC3)cc2)ncc1Cl (stereo not drawn) [UB-181069] | 10 to 100 nM | > 1000 nM | > 1000 nM | > 1000 nM | – | – | – | –
2 | CNC(=O)c1ccccc1Nc1nc(Nc2ccc(N3CCN(C(=O)NCCCOCCCNCCC#Cc4cccc5c4CN(C4CCC(=O)NC4=O)C5=O)CC3)cc2)ncc1Cl (stereo not drawn) [UB-181070] | 10 to 100 nM | > 1000 nM | 100 to 1000 nM | 100 to 1000 nM | – | – | – | –
3 | O=C1CCC(N2Cc3cc(NC(=O)COCCOCCOCC(O)Cn4cc(-c5ccc(Nc6ncc7c(n6)-c6ccc(Cl)cc6C(c6c(F)cccc6F)=NC7)cc5)nn4)ccc3C2=O)C(=O)N1 (stereo not drawn) [UB-181071] | 100 to 1000 nM | > 1000 nM | > 1000 nM | > 1000 nM | – | – | – | –
4 | O=C1CCC(N2Cc3c(NC(=O)COCCOCCOCC(O)Cn4cc(-c5ccc(Nc6ncc7c(n6)-c6ccc(Cl)cc6C(c6c(F)cccc6F)=NC7)cc5)nn4)cccc3C2=O)C(=O)N1 (stereo not drawn) [UB-181072] | 100 to 1000 nM | > 1000 nM | > 1000 nM | > 1000 nM | – | – | – | –
5 | CNC(=O)c1ccccc1Nc1nc(Nc2ccc(N3CCN(C(=O)NCCOCCOCC(N)COCCC(=O)Nc4cccc5c4CN(C4CCC(=O)NC4=O)C5=O)CC3)cc2)ncc1Cl (stereo not drawn) [UB-181073] | < 10 nM | > 1000 nM | > 1000 nM | > 1000 nM | – | – | – | –
6 | CNC(=O)c1ccccc1Nc1nc(Nc2ccc(N3CCN(C(=O)NCCOCC(O)COCCOCCC(=O)Nc4ccc5c(c4)CN(C4CCC(=O)NC4=O)C5=O)CC3)cc2)ncc1Cl (stereo not drawn) [UB-181074] | 10 to 100 nM | > 1000 nM | > 1000 nM | > 1000 nM | – | – | – | –
7 | O=C1CCC(N2Cc3cc(NC(=O)CCOCCOCCOCC(O)Cn4cc(-c5ccc(Nc6ncc7c(n6)-c6ccc(Cl)cc6C(c6c(F)cccc6F)=NC7)cc5)nn4)ccc3C2=O)C(=O)N1 (stereo not drawn) [UB-181075] | > 1000 nM | > 1000 nM | > 1000 nM | 100 to 1000 nM | – | – | – | –
8 | O=C1CCC(N2Cc3cc(NC(=O)CCOCCOCC(O)COCCn4cc(-c5ccc(Nc6ncc7c(n6)-c6ccc(Cl)cc6C(c6c(F)cccc6F)=NC7)cc5)nn4)ccc3C2=O)C(=O)N1 (stereo not drawn) [UB-181077] | – | > 1000 nM | > 1000 nM | > 1000 nM | 100 to 1000 nM | – | – | –
9 | CNC(=O)c1ccccc1Nc1nc(Nc2ccc(N3CCN(C(=O)NCCOCC(O)COCCOCCC(=O)Nc4cccc5c4CN(C4CCC(=O)NC4=O)C5=O)CC3)cc2)ncc1Cl (stereo not drawn) [UB-181079] | < 10 nM | > 1000 nM | > 1000 nM | 100 to 1000 nM | – | – | – | –
10 | CNC(=O)c1ccccc1Nc1nc(Nc2ccc(N3CCN(C(=O)NCC(O)COCCOCCOCCC(=O)Nc4ccc5c(c4)CN(C4CCC(=O)NC4=O)C5=O)CC3)cc2)ncc1Cl (stereo not drawn) [UB-181081] | 10 to 100 nM | > 1000 nM | > 1000 nM | > 1000 nM | – | – | – | –
11 | CNC(=O)c1ccccc1Nc1nc(Nc2ccc(N3CCN(C(=O)NCC(O)COCCOCCOCCC(=O)Nc4cccc5c4CN(C4CCC(=O)NC4=O)C5=O)CC3)cc2)ncc1Cl (stereo not drawn) [UB-181082] | 10 to 100 nM | > 1000 nM | > 1000 nM | > 1000 nM | – | – | – | –
12 | CNC(=O)c1ccccc1Nc1nc(Nc2ccc(N3CCN(C(=O)NCCCOCC(=O)COCC#Cc4cccc5c4CN(C4CCC(=O)NC4=O)C5=O)CC3)cc2)ncc1Cl (stereo not drawn) [UB-181083] | 10 to 100 nM | > 1000 nM | > 1000 nM | > 1000 nM | – | – | – | –
13 | CNC(=O)c1ccccc1Nc1nc(Nc2ccc(N3CCN(C(=O)N[C@H]4CC[C@@H](NCCCOCCC#Cc5ccc6c(c5)CN(C5CCC(=O)NC5=O)C6=O)CC4)CC3)cc2)ncc1Cl (stereo partly drawn) [UB-181084] | < 10 nM | 100 to 1000 nM | 100 to 1000 nM | 100 to 1000 nM | – | – | – | –
14 | CNC(=O)c1ccccc1Nc1nc(Nc2ccc(N3CCN(C(=O)NCCOCC(=O)COCCOCCC(=O)Nc4ccc5c(c4)CN(C4CCC(=O)NC4=O)C5=O)CC3)cc2)ncc1Cl (stereo not drawn) [UB-181086] | 10 to 100 nM | > 1000 nM | > 1000 nM | 100 to 1000 nM | – | – | – | –
15 | CNC(=O)c1ccccc1Nc1nc(Nc2ccc(N3CCN(C(=O)N[C@H]4CC[C@@H](NCCCOCCC#Cc5cccc6c5CN(C5CCC(=O)NC5=O)C6=O)CC4)CC3)cc2)ncc1Cl (stereo partly drawn) [UB-181087] | < 10 nM | 100 to 1000 nM | > 1000 nM | 100 to 1000 nM | – | – | – | –
16 | CNC(=O)c1ccccc1Nc1nc(Nc2ccc(N3CCN(C(=O)NCCOCC(COCCOCCC(=O)Nc4cccc5c4CN(C4CCC(=O)NC4=O)C5=O)NC)CC3)cc2)ncc1Cl (stereo not drawn) [UB-181088] | < 10 nM | > 1000 nM | – | > 1000 nM | – | > 1000 nM | – | –
17 | CNC(=O)c1ccccc1Nc1nc(Nc2ccc(N3CCN(C(=O)NCCOCC(COCCOCCC(=O)Nc4ccc5c(c4)CN(C4CCC(=O)NC4=O)C5=O)NC)CC3)cc2)ncc1Cl (stereo not drawn) [UB-181090] | 10 to 100 nM | > 1000 nM | – | > 1000 nM | – | > 1000 nM | – | –
18 | CNC(=O)c1ccccc1Nc1nc(Nc2ccc(N3CCN(C(=O)N[C@H]4CC[C@@H](NCCCOCC#Cc5cccc6c5CN(C5CCC(=O)NC5=O)C6=O)CC4)CC3)cc2)ncc1Cl (stereo partly drawn) [UB-181091] | < 10 nM | > 1000 nM | 100 to 1000 nM | 100 to 1000 nM | – | – | – | –
19 | CNC(=O)c1ccccc1Nc1nc(Nc2ccc(N3CCN(C(=O)N[C@H]4CC[C@@H](NCCCOCCC(=O)Nc5cccc6c5CN(C5CCC(=O)NC5=O)C6=O)CC4)CC3)cc2)ncc1Cl (stereo partly drawn) [UB-181092] | 10 to 100 nM | > 1000 nM | > 1000 nM | > 1000 nM | – | – | – | –
20 | CNC(=O)c1ccccc1Nc1nc(Nc2ccc(N3CCN(C(=O)N[C@H]4CC[C@@H](NCCCOCCC(=O)Nc5ccc6c(c5)CN(C5CCC(=O)NC5=O)C6=O)CC4)CC3)cc2)ncc1Cl (stereo partly drawn) [UB-181093] | 10 to 100 nM | > 1000 nM | > 1000 nM | > 1000 nM | – | – | – | –
21 | CNC(=O)c1ccccc1Nc1nc(Nc2ccc(N3CCN(C(=O)NCCCOCCCNCCC#Cc4ccc5c(c4)CN(C4CCC(=O)NC4=O)C5=O)CC3)cc2)ncc1Cl (stereo not drawn) [UB-181094] | < 10 nM | > 1000 nM | > 1000 nM | 100 to 1000 nM | – | – | – | –
22 | CNC(=O)c1ccccc1Nc1nc(Nc2ccc(N3CCN(C(=O)NCCCCOCCCCNCCC#Cc4ccc5c(c4)CN(C4CCC(=O)NC4=O)C5=O)CC3)cc2)ncc1Cl (stereo not drawn) [UB-181095] | < 10 nM | 100 to 1000 nM | > 1000 nM | 100 to 1000 nM | – | – | – | –
23 | CNC(=O)c1ccccc1Nc1nc(Nc2ccc(N3CCN(C(=O)N[C@H]4CC[C@@H](NCCCOCC#Cc5ccc6c(c5)CN(C5CCC(=O)NC5=O)C6=O)CC4)CC3)cc2)ncc1Cl (stereo partly drawn) [UB-181096] | < 10 nM | 100 to 1000 nM | 100 to 1000 nM | 100 to 1000 nM | – | – | – | –
24 | CNC(=O)c1ccccc1Nc1nc(Nc2ccc(N3CCN(C(=O)N[C@H]4C[C@H](NCCCOCCC#Cc5ccc6c(c5)CN(C5CCC(=O)NC5=O)C6=O)C4)CC3)cc2)ncc1Cl (stereo partly drawn) [UB-181097] | 100 to 1000 nM | > 1000 nM | > 1000 nM | > 1000 nM | – | – | – | –
25 | CNC(=O)c1ccccc1Nc1nc(Nc2ccc(N3CCN(C(=O)NCCCCOCCCCNC#Cc4cccc5c4CN(C4CCC(=O)NC4=O)C5=O)CC3)cc2)ncc1Cl (stereo not drawn) [UB-181098] | < 10 nM | 100 to 1000 nM | > 1000 nM | 10 to 100 nM | – | – | – | –
26 | CNC(=O)c1ccccc1Nc1nc(Nc2ccc(N3CCN(C(=O)NC4CCC(NCCCCOCC(=O)Nc5ccc6c(c5)CN(C5CCC(=O)NC5=O)C6=O)CC4)CC3)cc2)ncc1Cl (stereo not drawn) [UB-181109] | 10 to 100 nM | > 1000 nM | > 1000 nM | 100 to 1000 nM | – | – | – | –
27 | CNC(=O)c1ccccc1Nc1nc(Nc2ccc(N3CCN(C(=O)NCCCOCCNCCC#Cc4ccc5c(c4)CN(C4CCC(=O)NC4=O)C5=O)CC3)cc2)ncc1Cl (stereo not drawn) [UB-181110] | 10 to 100 nM | > 1000 nM | > 1000 nM | 100 to 1000 nM | – | – | – | –
28 | CNC(=O)c1ccccc1Nc1nc(Nc2ccc(N3CCN(C(=O)NCCCOCCNCCC#Cc4cccc5c4CN(C4CCC(=O)NC4=O)C5=O)CC3)cc2)ncc1Cl (stereo not drawn) [UB-181111] | < 10 nM | 100 to 1000 nM | > 1000 nM | 10 to 100 nM | – | – | – | –
29 | CNC(=O)c1ccccc1Nc1nc(Nc2ccc(N3CCN(C(=O)N[C@H]4CC[C@@H](NCCOCCC#Cc5cccc6c5CN(C5CCC(=O)NC5=O)C6=O)CC4)CC3)cc2)ncc1C#N (stereo partly drawn) [UB-181112] | < 10 nM | > 1000 nM | > 1000 nM | 100 to 1000 nM | – | – | – | –
30 | CNC(=O)c1ccccc1Nc1nc(Nc2ccc(N3CCN(C(=O)N[C@H]4CC[C@@H](NCCOCCC#Cc5ccc6c(c5)CN(C5CCC(=O)NC5=O)C6=O)CC4)CC3)cc2)ncc1C#N (stereo partly drawn) [UB-181114] | < 10 nM | – | – | 100 to 1000 nM | – | – | > 1000 nM | > 1000 nM
